The values below come from patent US5914236A, “PCT-65 serotonin receptor” (United States of America, priority 1995, dated 1999).

One may read the Ki as the dissociation constant of the complex between target and ligand, obtained from inhibition or displacement.

Test [1] deals with T1, PCT-65 receptor (Rattus norvegicus, UniProt P32305).
T1 construct: expressed in transfected cells; host or cells: COS-7 cells (transient, calcium phosphate, pSRα-65)
Briefly: [3H]-LSD competition binding to PCT-65 receptor in membranes of transfected COS-7 cells. The conditions noted are these: for Ki: competing with [3H]-LSD (1.5-2.2 nM), COS-7 membranes, pH 7.4, 37 °C, 60 min, geometric mean ± SEM (n=3). An excerpt:
(§1) This plasmid construct (pSRα-65) was introduced into COS-7 cells by calcium phosphate-mediated transfection.

In test [2] the target is T1, PCT-65 receptor. Briefly: [3H]-5-HT competition binding to PCT-65 receptor in membranes of transfected COS-7 cells. The conditions noted are these: competing with [3H]-5-HT (1 nM), COS-7 membranes, 37 °C; geometric mean ± SEM (n=3). The method, then:
as §1
Specifically, transfected cells were scraped into PBS with 5 mM EDTA, spun, polytroned, spun, suspended in 100 mM Tris, 20 mM MgSO4, 1 mM EDTA, pH7.7. 0.5 ml of this solution containing 10-25 μg protein was added to 0.5 ml of a 2 mM ascorbic acid solution containing the ligand and drugs and incubated for 30 min at 37° C. Filtration was performed on GF/C paper (0.1% PEI solution pre-treatment) with a 10 ml rinse.

For test [3], the target named is T1, PCT-65 receptor. The test is described as follows: Competition binding to PCT-65 receptor (radioligand not specified). The conditions noted are these: for affinity for PCT-65 (in words): expressed in mammalian cells (COS-7).
A further test concerns 5HT1A receptors. The following applies: background; cited from earlier work.
The mark [4] stands for this setting: radioligand not given, read-out: Ki (compounds not in Table 1).

T1 sequence (P32305 45-448): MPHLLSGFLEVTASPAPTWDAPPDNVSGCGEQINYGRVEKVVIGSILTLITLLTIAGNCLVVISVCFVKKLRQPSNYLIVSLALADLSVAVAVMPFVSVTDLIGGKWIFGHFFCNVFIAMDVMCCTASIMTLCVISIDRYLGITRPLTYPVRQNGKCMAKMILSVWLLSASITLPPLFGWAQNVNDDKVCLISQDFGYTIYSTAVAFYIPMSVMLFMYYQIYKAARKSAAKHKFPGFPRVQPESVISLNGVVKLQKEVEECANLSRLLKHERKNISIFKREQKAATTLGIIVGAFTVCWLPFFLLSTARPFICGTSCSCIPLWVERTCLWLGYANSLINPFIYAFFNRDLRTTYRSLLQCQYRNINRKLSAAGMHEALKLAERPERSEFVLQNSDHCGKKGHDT

Regarding `c1ccc2c(N3CCNCC3)cccc2c1` [1(1-Napthyl)piperazine], the inhibition constant Ki turned out to be 33.8 ± 1.68 nM on PCT-65 receptor [1] and 18.4 ± 0.77 nM at PCT-65 receptor [2].

For the compound `COc1ccccc1N1CCNCC1` [2-MPP], the Ki was found to be 244 ± 16.5 nM on PCT-65 receptor [1] and 125 ± 8.4 nM on PCT-65 receptor [2].

As for `NCCc1c[nH]c2ccc(C(N)=O)cc12` [5-Carboxamidotryptamine], the Ki on PCT-65 receptor [1] came out at 0.33 ± 0.01 nM; on PCT-65 receptor [2] it was 0.16 ± 0.05 nM.

On to `NCCc1c[nH]c2ccc(O)cc12` [5-Hydroxytryptamine, 5-hydroxytryptamine], for which the “affinity for PCT-65 (in words)” value at PCT-65 receptor [3] is reported as “high affinity”.

For the compound `COc1ccc2[nH]cc(CCN(C)C)c2c1` [5-Methoxy-N,N-dimethytryptamine], the figures for the Ki at PCT-65 receptor [1] and on PCT-65 receptor [2] were 20.9 ± 0.86 nM and 8.26 ± 0.73 nM, respectively.

Regarding `CCCN(CCC)C1CCc2cccc(O)c2C1` (stereo not drawn) [8-OH-DPAT], the inhibitory constant (Ki) at PCT-65 receptor [1] was found to be 35.4 ± 5.24 nM; on PCT-65 receptor [2], 35 ± 5.62 nM. Further, the “affinity for PCT-65 (in words)” value at PCT-65 receptor [3] was “relatively low affinity”.

`CN(C)CCC=C1c2ccccc2CCc2ccccc21` [Amitriptyline]: the Ki on PCT-65 receptor [1] is 124 ± 13.4 nM; on PCT-65 receptor [2] it was 92.8 ± 15.8 nM; on PCT-65 receptor [3], less than 100 nM. The “affinity for PCT-65 (in words)” value at PCT-65 receptor [3] is listed as “high affinity”.

Turning to `CCn1c(=O)n(C(=O)NC2CC3CCC(C2)N3C)c2ccccc21` (stereo not drawn) [BIMU1], the Ki at PCT-65 receptor [3] (setting [4]) was more than 1300 nM.

`CC(C)n1c(=O)n(C(=O)NC2CC3CCC(C2)N3C)c2ccccc21` (stereo not drawn) [BIMU8] gave a Ki at PCT-65 receptor [3] of more than 1300 nM.

Take `COc1cc(N)c(Cl)cc1C(=O)NC1CCN2CCCC1C2` (stereo not drawn) [BRL24294]: at PCT-65 receptor [3] (setting [4]), the Ki was more than 1300 nM.

Regarding `CN1C2CCCC1CC(NC(=O)c1nn(C)c3ccccc13)C2` (stereo not drawn) [BRL43694], the inhibition constant Ki at PCT-65 receptor [3] (setting [4]) was more than 1300 nM.

As to `CC(C)C[C@H]1C(=O)N2CCC[C@H]2[C@]2(O)O[C@](NC(=O)[C@@H]3C=C4c5cccc6[nH]c(Br)c(c56)C[C@H]4N(C)C3)(C(C)C)C(=O)N12` [Bromocriptine], the Ki is 10.7 ± 0.47 nM on PCT-65 receptor [1] and 48.8 ± 7.9 nM at PCT-65 receptor [2].

On to `CN(C)CCCC1(c2ccc(F)cc2)OCc2cc(C#N)ccc21` (stereo not drawn) [Citalopram], for which the Ki on PCT-65 receptor [3] was more than 1300 nM.

Regarding `CN1C2CCC1CC(NC(=O)n1c(=O)[nH]c3ccccc31)C2` (stereo not drawn) [DAU6215], the Ki at PCT-65 receptor [3] (setting [4]) is more than 1300 nM.

With `CNCCCN1c2ccccc2CCc2ccccc21` [Desipramine], the inhibitory constant (Ki) on PCT-65 receptor [3] is more than 1300 nM.

In the case of `NCCc1ccc(O)c(O)c1` [Dopamine], the inhibition constant (Ki) on PCT-65 receptor [3] (setting [4]) is more than 1300 nM.

Turning to `CCNC(C)Cc1cccc(C(F)(F)F)c1` (stereo not drawn) [Fenflurmine], at PCT-65 receptor [3], the inhibition constant Ki is more than 1300 nM.

For `NCCc1c[nH]cn1` [Histamine], the Ki on PCT-65 receptor [3] (setting [4]) was more than 1300 nM.

Take `c1ccc2c(c1)OCC(C1=NCCN1)O2` (stereo not drawn) [Idazoxan]: the Ki on PCT-65 receptor [3] (setting [4]) was more than 1300 nM.

For `O=C(c1ccc(F)cc1)C1CCN(CCn2c(=O)[nH]c3ccccc3c2=O)CC1` [Ketanserin], the Ki was 207 ± 19.6 nM on PCT-65 receptor [1] and 265 ± 32.1 nM at PCT-65 receptor [2].

For `CCN(CC)C(=O)[C@@H]1C=C2c3cccc4[nH]cc(c34)C[C@H]2N(C)C1` [LSD], on PCT-65 receptor [3], the “affinity for PCT-65 (in words)” value is “relatively high affinity”.

`CN1C2CCC1CC(NC(=O)c1nn(C)c3ccccc13)C2` (stereo not drawn) [LY-278584] returned a Ki on PCT-65 receptor [3] of more than 1300 nM.

Consider `CN1CCN(C2=Nc3ccccc3Oc3ccc(Cl)cc32)CC1` [Loxapine], for which the Ki on PCT-65 receptor [1] was 172 ± 7.8 nM; at PCT-65 receptor [2] it was 133 ± 36.1 nM. In addition, the “affinity for PCT-65 (in words)” value on PCT-65 receptor [3] is on record as “low affinity”; at PCT-65 receptor [3] (listed as loxipine), “high affinity”.

In the case of `CN1[C@@H]2CC[C@H]1C[C@@H](OC(=O)c1cc(Cl)cc(Cl)c1)C2` [MDL7222], at PCT-65 receptor [3] (setting [4]), the Ki was more than 1300 nM.

In the case of `COc1ccc2[nH]cc(CCNC(C)=O)c2c1` [Melotonin], on PCT-65 receptor [3], the Ki was more than 1300 nM.

For `CN1C[C@@H](NS(=O)(=O)N(C)C)C[C@@H]2c3cccc4c3c(cn4C)C[C@H]21` [Mesulergine], the figures for the Ki at PCT-65 receptor [1] and at PCT-65 receptor [2] were 7.13 ± 0.39 nM and 21.1 ± 2.19 nM, respectively. In addition, the “affinity for PCT-65 (in words)” value at PCT-65 receptor [3] is listed as “relatively high affinity”.

On to `CN1C[C@H](CNC(=O)OCc2ccccc2)C[C@@H]2c3cccc4c3c(cn4C)C[C@H]21` [Metergoline], for which the inhibition constant (Ki) amounted to 2.04 ± 0.15 nM at PCT-65 receptor [1] and 6.21 ± 1 nM at PCT-65 receptor [2]. In addition, at PCT-65 receptor [1] (relative to competition with [3H]-5-HT), the “potency in competition with [3H]-LSD compared with [3H]-5-HT (in words)” value is listed as “somewhat greater potency”.

For `CC[C@@H](CO)NC(=O)[C@@H]1C=C2c3cccc4c3c(cn4C)C[C@H]2N(C)C1` [Methysergide], the Ki on PCT-65 receptor [1] turned out to be 12.6 ± 0.84 nM; on PCT-65 receptor [2] it was 13.4 ± 0.8 nM.

`COc1ccccc1N1CCN(CCCCN2C(=O)c3ccccc3C2=O)CC1` [NAN-190]: at PCT-65 receptor [3] (setting [4]), the inhibition constant Ki was more than 1300 nM.

As to `NCC(O)c1ccc(O)cc1` (stereo not drawn) [Octopamine], on PCT-65 receptor [3], the Ki is more than 1300 nM.

Take `CCCN1C[C@H](CSC)C[C@@H]2c3cccc4[nH]cc(c34)C[C@H]21` [Pergolide]: the Ki on PCT-65 receptor [1] was 4.78 ± 0.18 nM; at PCT-65 receptor [2], 1.01 ± 0.03 nM. The “affinity for PCT-65 (in words)” value on PCT-65 receptor [3] is “relatively high affinity”.

Take `CC(C)NCC(O)COc1cccc2[nH]ccc12` (stereo not drawn) [Pindolol]: the inhibition constant Ki at PCT-65 receptor [3] is more than 1300 nM.

Consider `c1ccc2nc(N3CCNCC3)ccc2c1` [Quipazine], for which the inhibition constant (Ki) at PCT-65 receptor [3] (setting [4]) is more than 1300 nM.

Take `Cc1nc2sccn2c(=O)c1CCN1CCC(=C(c2ccc(F)cc2)c2ccc(F)cc2)CC1` [Ritanserin]: the figures for the Ki on PCT-65 receptor [1] and on PCT-65 receptor [2] were 21.7 ± 2.1 nM and 15 ± 3.4 nM, respectively.

Turning to `CNS(=O)(=O)Cc1ccc2[nH]cc(CCN(C)C)c2c1` [Sumatriptan], the affinity on PCT-65 receptor [2] corresponds to a Ki of 251 ± 36.1 nM.

Take `FC(F)(F)c1cccc(N2CCNCC2)c1` [TFMPP]: the inhibitory constant (Ki) on PCT-65 receptor [1] turned out to be 533 ± 33 nM; on PCT-65 receptor [2] it was 236 ± 5.5 nM.

With `NCCc1c[nH]c2ccccc12` [Tryptamine], the inhibitory constant (Ki) on PCT-65 receptor [1] is 32.9 ± 0.76 nM; at PCT-65 receptor [2], 16.4 ± 1.01 nM.

With `COc1cc(N)c(Cl)cc1C(=O)NC1CN2CCC1CC2` (stereo not drawn) [Zacopride], the Ki on PCT-65 receptor [3] (setting [4]) was more than 1300 nM.

For the compound `CC1(C)CC(=O)N(CCCCN2CCN(c3ncccn3)CC2)C(=O)C1` [gepirone], the “affinity for 5HT1A receptors in the brain (in words)” value with 5HT1A receptors was “high affinities”.

As for `O=C1c2ccccc2S(=O)(=O)N1CCCCN1CCN(c2ncccn2)CC1` [ipsapirone], the “affinity for 5HT1A receptors in the brain (in words)” value in the test with 5HT1A receptors was “high affinities”.

Regarding `Clc1cccc(N2CCNCC2)c1` [mCPP], the Ki on PCT-65 receptor [1] was 352 ± 54.9 nM; at PCT-65 receptor [2], 256 ± 9.9 nM.
